Measurements as given in US7482415B2, “Process for producing fluoroionomer, method for purification and concentration of the ionomer, and method of film formation” (Daikin Industries, Ltd., priority 2000, dated 2009).

What was measured:
Type in all cases: physicochemical
[1] = Dissolution test (Solvent D): dissolving power of acids for S monomer, visually evaluated; design: key: A: Completely dissolved; B: Partially dissolved or swelled; C: Not dissolved; settings: small amount of S monomer
Description: (§1) Each solvent shown in the following table (50 cc) was placed in an individual test tube, and a small amount of S monomer was added to test the dissolving power.
The dissolving power was visually evaluated on the following scale of three. […] A: Completely dissolved; B: Partially dissolved or swelled; C: Not dissolved

[2] = Solubility test of S monomer in solvents
[3] = Dissolution test (Solvent A): dissolving power of solvents for S monomer, visually evaluated; design: key: A: Completely dissolved; B: Partially dissolved or swelled; C: Not dissolved; settings: small amount of S monomer
Description: as §1
The dissolving power was visually evaluated on the following scale of three. […] A: Completely dissolved; B: Partially dissolved or swelled; C: Not dissolved.

- Dissolving power ([1]; acid Acetic acid (50 cc)): A
- Dissolving power ([1]; acid CF2═CFCF2COOH (50 cc)): A
- Dissolving power ([1]; acid Hexafluoroisopropanol (50 cc)): A
- Dissolving power ([1]; acid Hydrofluoric acid (50 cc)): A
- Dissolving power ([1]; acid Trifluoroacetic acid (50 cc)): A
- Solubility ([2]; in Dimethoxyethane): 2700 mM
- Solubility ([2]; in Hexafluoroisopropanol): 30 mM
- Solubility ([2]; in Trifluoroacetic acid): 700 mM
- Solubility ([2]; in sec-Butanol): 770 mM
- Solubility ([2]; in t-Butanol): 530 mM
- Dissolving power ([3]; solvent Acetic acid (50 cc)): A
- Dissolving power ([3]; solvent Acetone (50 cc)): A
- Dissolving power ([3]; solvent Acetonitrile (50 cc)): A
- Dissolving power ([3]; solvent Benzene (50 cc)): C
- Dissolving power ([3]; solvent Carbon disulfide (50 cc)): C
- Dissolving power ([3]; solvent Chloroform (50 cc)): C
- Dissolving power ([3]; solvent Diethyl ether (50 cc)): C
- Dissolving power ([3]; solvent Dimethylformamide (50 cc)): A
- Dissolving power ([3]; solvent Diphenyl ether (50 cc)): C
- Dissolving power ([3]; solvent Ethanol (50 cc)): A
- Dissolving power ([3]; solvent Ethyl acetate (50 cc)): A
- Dissolving power ([3]; solvent Hexane (50 cc)): C
- Dissolving power ([3]; solvent Isopropanol (50 cc)): A
- Dissolving power ([3]; solvent Methanol (50 cc)): A
- Dissolving power ([3]; solvent Pyridine (50 cc)): A
- Dissolving power ([3]; solvent Tetrahydrofuran (50 cc)): A
- Dissolving power ([3]; solvent Trifluoroacetic acid (50 cc)): A
SMILES: O=S(=O)([O-])C(F)(F)C(F)(F)OC(F)=C(F)F.[Na+] [S monomer, CF2═CFOCF2CF2SO3Na]
